Data: US9980945B2, “Benzoisoxazole-substituted compounds as MGLUR4 allosteric potentiators, compositions, and methods of treating neurological dysfunction” (Vanderbilt University, priority 2015, dated 2018)

biological target: mGluR4 (UniProt Q14833); assay: mGluR4 potentiation assay (EC50 for potentiation at EC20 agonist; fluorometric plate reader, Ca2+ or thallium dye); format: cell-based; settings: potentiation of mGluR4; species of receptor not given
Protocol: The disclosed compounds and compositions can be evaluated for their ability to act as a potentiator of metabotropic glutamate receptor activity, in particular mGluR4 activity, by any suitable known methodology known in the art. For example, Chinese Hamster Ovary (CHO) cells transacted with human mGluR4 or HEK cells co-transfected with rat mGluR4 and the G-protein regulated Inwardly Rectifying Potassium channel (GIRK) were plated in clear bottom assay plates for assay in a Hamamatsu FDSS Fluorometric Plate Reader. The cells were loaded with either a Ca2+-sensitive fluorescent dye or the thallium responsive dye and the plates were washed and placed into a suitable kinetic plate reader. For human mGluR4 assays, a fluorescence baseline was established for 3-5 seconds, the disclosed compounds were then added to the cells, and the response in cells was measured. Approximately two and a half minutes later, a concentration of mGluR4 orthosteric agonist (e.g. glutamate or L-AP4) eliciting approximately 20% (EC20) of the maximal agonist response was added to the cells, and the response was measured. Two minutes later, a concentration of mGluR4 agonist (e.g. glutamate or L-AP4) eliciting 80% (EC80) of the maximal agonist response was added to the cells, and the response was measured. For rat mGluR4/GIRK experiments, a baseline was established for approximately five seconds, disclosed compounds were added, and either an EC20 or EC80 concentration of agonist was added approximately two and one half minutes later. Potentiation of the agonist response of mGluR4 by the disclosed compounds was observed as an increase in response to the EC20 concentration of agonist in the presence of compound compared to the response to agonist in the absence of compound. Similarly, antagonism of the agonist response of mGluR4 by the disclosed compounds was observed as a decrease in response to the EC80 concentration of agonist in the presence of compound compared to the response to agonist in the absence of compound.
The above described assay operated in two modes. In the first mode, a range of concentrations of the disclosed compounds are added to cells, followed by a single fixed concentration of agonist. If the compound acts as a potentiator, an EC50 so value for potentiation and a maximum extent of potentiation by the compound at this concentration of agonist is determined by non-linear curve fitting. If the compound acts as a noncompetitive antagonist, an IC50 value is determined by non-linear curve fitting. In the second mode, several fixed concentrations of the disclosed compounds are added to various wells on a plate, followed by a range in concentrations of agonist for each concentration of disclosed compound. The EC50 values for the agonist at each concentration of compound are determined by non-linear curve fitting. A decrease in the EC50 value of the agonist with increasing concentrations of the sample compound (a leftward shift of the agonist concentration-response curve) is an indication of the degree of mGluR4 potentiation at a given concentration of the sample compound. A decrease in the maximal response of the agonist with increasing concentrations of the sample compounds, with or without a rightward shift in agonist potency, is an indication of the degree of noncompetitive antagonism at mGluR4. The second mode also indicates whether the sample compounds also affect the maximum response to mGluR4 to agonists.

EC50 [nM] | SMILES
622 | C[C@@H](NCc1noc2cc(Nc3n[nH]c4cccnc34)ccc12)C(C)(C)C [Example 79, N-(1H-pyrazolo[4,3-b]pyridin-3-yl)-3-[[[(1R)-1,2,2-trimethylpropyl]amino]methyl]-1,2-benzoxazol-6-amine]
521 | CC(C)(C)Cc1noc2cc(Nc3n[nH]c4cccnc34)ccc12 [Example 11, 3-neopentyl-N-(1H-pyrazolo[4,3-b]pyridin-3-yl)benzo[d]isoxazol-6-amine]
> 10000 | CC(c1ccc(=O)[nH]c1)c1noc2cc(Nc3n[nH]c4cccnc34)ccc12 (stereo not drawn) [Example 139, 5-[1-[6-(1H-pyrazolo[4,3-b]pyridin-3-ylamino)-1,2-benzoxazol-3-yl]ethyl]-1H-pyridin-2-one]
826 | CC(C)Cc1noc2cc(Nc3n[nH]c4cccnc34)ccc12 [Example 12, 3-isobutyl-N-(1H-pyrazolo[4,3-b]pyridin-3-yl)benzo[d]isoxazol-6-amine]
810 | CCCCNC(c1noc2cc(Nc3n[nH]c4cccnc34)ccc12)C(F)(F)F (stereo not drawn) [Example 180, 3-[1-(butylamino)-2,2,2-trifluoro-ethyl]-N-(1H-pyrazolo[4,3-b]pyridin-3-yl)-1,2-benzoxazol-6-amine; 2,2,2-trifluoroacetic acid]
> 10000 | CCc1noc2ccc(Nc3n[nH]c4cccnc34)cc12 [Example 25, 3-ethyl-N-(1H-pyrazolo[4,3-b]pyridin-3-yl)benzo[d]isoxazol-5-amine]
897 | c1cnc2c(Nc3ccc4c(C5CCC5)noc4c3)n[nH]c2c1 [Example 3, 3-cyclobutyl-N-(1H-pyrazolo[4,3-b]pyridin-3-yl)benzo[d]isoxazol-6-amine]
822 | CC(NCC(C)(C)C)c1noc2cc(Nc3n[nH]c4cccnc34)ccc12 (stereo not drawn) [Example 137, 3-[1-(2,2-dimethylpropylamino)ethyl]-N-(1H-pyrazolo[4,3-b]pyridin-3-yl)-1,2-benzoxazol-6-amine]
> 10000 | ClC1(c2noc3cc(Nc4n[nH]c5cccnc45)ccc23)CCC1 [Example 6, 3-(1-chlorocyclobutyl)-N-(1H-pyrazolo[4,3-b]pyridin-3-yl)benzo[d]isoxazol-6-amine]
> 10000 | O=C(Cc1noc2cc(Nc3n[nH]c4cccnc34)ccc12)NC1CC(F)(F)C1 [Example 140, N-(3,3-difluorocyclobutyl)-2-[6-(1H-pyrazolo[4,3-b]pyridin-3-ylamino)-1,2-benzoxazol-3-yl]acetamide]
2400 | c1cnc2[nH]nc(Nc3ccc4c(C5CCCC5)noc4c3)c2c1 [Example 5, 3-cyclopentyl-N-(1H-pyrazolo[3,4-b]pyridin-3-yl)benzo[d]isoxazol-6-amine]
2110 | CC(C)(C)C(F)c1noc2cc(Nc3n[nH]c4cccnc34)ccc12 (stereo not drawn) [Example 146, 3-(1-fluoro-2,2-dimethyl-propyl)-N-(1H-pyrazolo[4,3-b]pyridin-3-yl)-1,2-benzoxazol-6-amine]
764 | O=C(NC1CC(F)C1)c1noc2cc(Nc3n[nH]c4cccnc34)ccc12 (stereo not drawn) [Example 54, N-(3-fluorocyclobutyl)-6-(1H-pyrazolo[4,3-b]pyridin-3-ylamino)-1,2-benzoxazol-3-carboxamide]
890 | FCCc1noc2cc(Nc3n[nH]c4cccnc34)ccc12 [Example 177, 3-(2-fluoroethyl)-N-(1H-pyrazolo[4,3-b]pyridin-3-yl)-1,2-benzoxazol-6-amine]

Further lines, the compound ahead of its results:

SMILES | EC50 [nM]
CC(C)(C)Cc1noc2cc(Nc3n[nH]c4cccnc34)cnc12 [Example 171, 3-(2,2-dimethylpropyl)-N-(1H-pyrazolo[4,3-b]pyridin-3-yl)isoxazolo[4,5-b]pyridin-6-amine] | 801
CC(C)c1noc2cc(Nc3n[nH]c4ncccc34)ccc12 [Example 154, 3-isopropyl-N-(1H-pyrazolo[3,4-b]pyridin-3-yl)-1,2-benzoxazol-6-amine] | 586
CC(C)Cc1noc2cc(Nc3n[nH]c4nccnc34)ccc12 [Example 13, 3-isobutyl-N-(1H-pyrazolo[3,4-b]pyrazin-3-yl)benzo[d]isoxazol-6-amine] | 849
CN(Cc1cccnc1)C(=O)Cc1noc2cc(Nc3n[nH]c4cccnc34)ccc12 [Example 157, N-methyl-2-[6-(1H-pyrazolo[4,3-b]pyridin-3-ylamino)-1,2-benzoxazol-3-yl]-N-(3-pyridylmethyl)acetamide] | 1750
CC(C)(C)Cc1noc2cc(Nc3n[nH]c4ncccc34)ccc12 [Example 20, 3-neopentyl-N-(1H-pyrazolo[3,4-b]pyridin-3-yl)benzo[d]isoxazol-6-amine] | 3100
CCc1noc2cc(Nc3n[nH]c4ccccc34)ccc12 [Example 18, 3-ethyl-N-(1H-imdazol-3-yl)benzo[d]isoxazol-6-amine] | 1940
Cc1noc2c(F)cc(Nc3n[nH]c4ncccc34)cc12 [Example 107, 7-fluoro-3-methyl-N-(1H-pyrazolo[3,4-b]pyridin-3-yl)-1,2-benzoxazol-5-amine] | 53.1
c1cnc2c(Nc3ccc4c(C5CCCC5)noc4c3)n[nH]c2n1 [Example 7, 3-cydopentyl-N-(1H-pyrazolo[3,4-b]pyrazin-3-yl)benzo[d]isoxazol-6-amine] | 527
O=C(Cc1noc2cc(Nc3n[nH]c4nccnc34)ccc12)NC1CC(F)(F)C1 [Example 141, N-(3,3-difluorocyclobutyl)-2-[6-(1H-pyrazolo[3,4-b]pyrazin-3-ylamino)-1,2-benzoxazol-3-yl]acetamide] | 277
O=C(Cc1noc2cc(Nc3n[nH]c4ncccc34)ccc12)NC1CC(F)(F)C1 [Example 142, N-(33-difluorocyclobutyl)-2-[6-(1H pyrazolo[3,4-b]pyridin-3-ylamino)-1,2-benzoxazol-3-yl]acetamide] | > 10000
CCCCC(F)(F)c1noc2cc(Nc3n[nH]c4ncccc34)ccc12 [Example 138, 3-(1,1-difluoropentyl)-N-(1H-pyrazolo[3,4-b]pyridin-3-yl)-1,2-benzoxazol-6-amine] | > 10000
Cn1ncc2cc(Cc3noc4cc(Nc5n[nH]c6nccnc56)ccc34)ccc21 [Example 114, 3-[(1-methylindazol-5-yl)methyl]-N-(1H-pyrazolo[3,4-b]pyrazin-3-yl)-1,2-benzoxazol-6-amine] | 42.3
CC(C)(C)Cc1noc2cc(Nc3n[nH]c4ncccc34)cc(F)c12 [Example 148, 3-(2,2-dimethylpropyl)-4-fluoro-N-(1H-pyrazolo[3,4-b]pyridin-3-yl)-1,2-benzoxazol-6-amine] | > 30000
Cc1noc2ccc(Nc3n[nH]c4nccnc34)cc12 [Example 23, 3-methyl-N-(1H-pyrazolo[3,4-b]pyrazin-3-yl)benzo[d]isoxazol-5-amine] | 124
O=C(NC(c1noc2cc(Nc3n[nH]c4cccnc34)ccc12)C(F)(F)F)c1nccs1 (stereo not drawn) [Example 153, N-[2,2,2-trifluoro-1-[6-(1H-pyrazolo[4,3-b]pyridin-3-ylamino)-1,2-benzoxazol-3-yl]ethyl]thiazole-carboxamide] | 1390
CC(C)(C)CNC(c1noc2cc(Nc3n[nH]c4cccnc34)ccc12)C(F)(F)F (stereo not drawn) [Example 181, 3-[1-(2,2-dimethylpropylamino)-2,2,2-trifluoro-ethyl]-N-(1H-pyrazolo[4,3-b]pyridin-3-yl)-1,2-benzoxazol-6-amine; 2,2,2-trifluoroacetic acid] | 1500
CN(C(=O)Cc1noc2cc(Nc3n[nH]c4cccnc34)ccc12)c1cccnc1 [Example 158, N-methyl-2-[6-(1H-pyrazolo[4,3-b]pyridin-3-ylamino)-1,2-benzoxazol-3-yl]-N-(3-pyridyl)acetamide] | 1170
CC(C)(C)Cc1noc2cc(Nc3n[nH]c4ncc(F)cc34)cc(F)c12 [Example 150, 3-(2,2-dimethylpropyl)-4-fluoro-N-(5-fluoro-1H-pyrazolo[3,4-b]pyridin-3-yl)-1,2-benzoxazol-6-amine] | > 10000
CC(c1ccccn1)N(C)C(=O)Cc1noc2cc(Nc3n[nH]c4cccnc34)ccc12 (stereo not drawn) [Example 165, N-methyl-2-[6-(1H-pyrazolo[4,3-b]pyridin-3-ylamino)-1,2-benzoxazol-3-yl]-N-[1-(2-pyridyl)ethyl]acetamide] | 2300
